Test results as given in patent US11618743B2, “Herbicidal compounds” (SYNGENTA PARTICIPATIONS AG, priority 2017, dated 2023).

Tests used:
Assay in all cases: Post-emergence efficacy, Method A
Format in all cases: in vivo
[1] = tested on: Echinochloa crus-galli (ECHCG); conditions: Application rate 500 g/Ha, evaluated after 13 days; for Control of weed species after post-emergence application, ECHCG: 100=total damage to plant, 0=no damage
Protocol: (§1) Seeds of a variety of test species were sown in standard soil in pots. After cultivation for 14 days (post-emergence) under controlled conditions in a glasshouse (at 24/16° C., day/night; 14 hours light; 65% humidity), the plants were sprayed with an aqueous spray solution derived from the dissolution of the technical active ingredient formula (I) in a small amount of acetone and a special solvent and emulsifier mixture referred to as IF50 (11.12% Emulsogen EL360 TM+44.44% N-methylpyrrolidone+44.44% Dowanol DPM glycol ether), to create a 50 g/l solution which was then diluted to required concentration using 0.25% or 1% Empicol ESC70 (Sodium lauryl ether sulphate)+1% ammonium sulphate as diluent.
(§2) The test plants were then grown in a glasshouse under controlled conditions (at 24/16° C., day/night; 14 hours light; 65% humidity) and watered twice daily. After 13 days the test was evaluated (100=total damage to plant; 0=no damage to plant).
(§3) Ipomoea hederacea (IPOHE), Euphorbia heterophylla (EPHHL), Chenopodium album (CHEAL), Amaranthus palmeri (AMAPA), Lolium perenne (LOLPE), Digitaria sanguinalis (DIGSA), Eleusine indica (ELEIN), Echinochloa crus-galli (ECHCG), Setaria faberi (SETFA)

Lolium perenne (LOLPE) = conditions: Application rate 500 g/Ha, evaluated after 13 days; for Control of weed species LOLPE after post-emergence application (100=total damage to plant; 0=no damage to plant): Method A; for Control of weed species after post-emergence application, LOLPE: 100=total damage to plant, 0=no damage
Protocol: as §1, §2, §3

Setaria faberi (SETFA) = conditions: Application rate 500 g/Ha, evaluated after 13 days; for Control of weed species after post-emergence application, SETFA: 100=total damage to plant, 0=no damage
Protocol: as §1, §2, §3

[2] = tested on: Amaranthus palmeri (AMAPA); conditions: Application rate 500 g/Ha; evaluated after 13 days; 100=total damage to plant, 0=no damage
Protocol: as §1, §2, §3

[3] = tested on: Chenopodium album (CHEAL); conditions: Application rate 500 g/Ha; evaluated after 13 days; 100=total damage to plant, 0=no damage
Protocol: as §1, §2, §3

[4] = tested on: Digitaria sanguinalis (DIGSA); conditions: Application rate 500 g/Ha; evaluated after 13 days; 100=total damage to plant, 0=no damage
Protocol: as §1, §2, §3

Eleusine indica (ELEIN) = conditions: Application rate 500 g/Ha; evaluated after 13 days; 100=total damage to plant, 0=no damage
Protocol: as §1, §2, §3

[5] = tested on: Euphorbia heterophylla (EPHHL); conditions: Application rate 500 g/Ha; evaluated after 13 days; 100=total damage to plant, 0=no damage
Protocol: as §1, §2, §3

[6] = tested on: Ipomoea hederacea (IPOHE); conditions: Application rate 500 g/Ha; evaluated after 13 days; 100=total damage to plant, 0=no damage
Protocol: as §1, §2, §3

| Compound | Control of weed species ECHCG after post-emergence application (100=total damage to plant; 0=no damage to plant) ([1]; Method A) | Control of weed species LOLPE after post-emergence application (100=total damage to plant; 0=no damage to plant) (Lolium perenne (LOLPE)) | Control of weed species SETFA after post-emergence application (100=total damage to plant; 0=no damage to plant) (Setaria faberi (SETFA); Method A) | Control of weed species after post-emergence application, AMAPA [2] | Control of weed species after post-emergence application, CHEAL [3] | Control of weed species after post-emergence application, DIGSA [4] | Control of weed species after post-emergence application, ECHCG [1] | Control of weed species after post-emergence application, ELEIN (Eleusine indica (ELEIN)) | Control of weed species after post-emergence application, EPHHL [5] | Control of weed species after post-emergence application, SETFA (Setaria faberi (SETFA)) | Control of weed species after post-emergence application, IPOHE [6] | Control of weed species after post-emergence application, LOLPE (Lolium perenne (LOLPE)) |
| --- | --- | --- | --- | --- | --- | --- | --- | --- | --- | --- | --- | --- |
| O=C(O)CC[n+]1ccc(-c2ncccn2)cn1.[Cl-] [Compound A26, 3-(4-pyrimidin-2-ylpyridazin-1-ium-1-yl)propanoic Acid Chloride] | 100 | 90 | 100 |  |  |  |  |  |  |  |  |  |
| O=C(O)CC[n+]1ccc(-c2ncccn2)cn1.O=C([O-])C(F)(F)F [Compound A125, 3-(4-pyrimidin-2-ylpyridazin-1-ium-1-yl)propanoic acid 2,2,2-trifluoroacetate] |  | 90 |  |  |  |  |  |  |  |  |  |  |
| Nc1nccc(-c2cc[n+](CCC(=O)O)nc2)n1.O=C([O-])C(F)(F)F [Compound A160] |  |  |  | 100 | 100 | 70 | 70 | 80 | 90 | 90 |  |  |
| O=C(O)CC[n+]1ccc(-c2ccnc(C(F)(F)F)c2)cn1.O=C([O-])C(F)(F)F [Compound A166] |  |  |  | 30 | 50 | 70 | 50 | 60 | 60 | 40 |  |  |
| CC(C)(C[n+]1ccc(-c2ccncn2)cn1)C(=O)O.O=C([O-])C(F)(F)F [Compound A167] |  |  |  | 20 | 70 | 50 | 60 | 80 | 90 | 40 |  |  |
| CC(CC(=O)O)[n+]1ccc(-c2ccncn2)cn1.O=C([O-])C(F)(F)F (centres unmarked) [Compound A172] |  |  |  | 30 | 60 | 80 | 50 | 70 | 50 | 50 |  |  |
| O=C(O)C(O)C[n+]1ccc(-c2ncccn2)cn1.O=C([O-])C(F)(F)F (centres unmarked) [Compound A180] |  |  |  | 100 | 90 | 60 | 70 | 90 | 80 | 70 |  |  |
| Nc1cc(-c2cc[n+](CCC(=O)O)nc2)nc(N)n1.O=C([O-])C(F)(F)F [Compound A188] |  |  |  | 90 | 50 | 40 | 50 | 20 | 30 | 30 |  |  |
| CC(C)(CC(=O)O)[n+]1ccc(-c2ccncn2)cn1.O=C([O-])C(F)(F)F [Compound A189] |  |  |  | 100 | 100 | 50 | 80 | 90 | 90 | 70 |  |  |
| O=C(O)C(O)C[n+]1ccc(-c2ccncn2)cn1.O=C([O-])C(F)(F)F (centres unmarked) [Compound A190] |  |  |  | 100 | 80 | 60 | 60 | 70 | 80 | 40 |  |  |
| COC(=O)C(C)[n+]1ccc(-c2ncccn2)cn1.O=C([O-])C(F)(F)F (centres unmarked) [Compound A192] |  |  |  | 90 | 60 | 30 | 30 | 30 | 40 | 20 |  |  |
| CC(C(=O)OC(C)(C)C)[n+]1ccc(-c2ncccn2)cn1.O=C([O-])C(F)(F)F (centres unmarked) [Compound A193] |  |  |  | 70 | 60 | 30 | 10 | 30 | 60 | 10 |  |  |
| O=C(O)CC[n+]1ccc(-c2ncc(C(F)(F)F)cc2Cl)cn1.O=C([O-])C(F)(F)F [Compound A197] |  |  |  | 100 | 10 | 20 | 0 | 10 | 10 | 0 |  |  |
| O=C([O-])C(F)(F)F.O=P(O)(O)CC[n+]1ccc(-c2ncccn2)cn1 [Compound A198] |  |  |  | 100 | 100 | 80 | 80 | 80 | 100 | 90 |  |  |
| COC(=O)CC[n+]1ccc(-c2ccncc2)cn1.O=C([O-])C(F)(F)F [Compound A203] |  |  |  | 100 | 90 | 70 | 50 | 60 | 50 | 60 |  |  |
| O=C([O-])C(F)(F)F.OCCC[n+]1ccc(-c2ncccn2)cn1 [Compound A206] |  |  |  | 60 | 90 | 20 | 20 | 10 | 60 | 10 |  |  |
| Nc1cc(-c2cc[n+](CCC(=O)O)nc2)ccn1.O=C([O-])C(F)(F)F [Compound A210] |  |  |  | 70 | 10 | 60 | 10 | 20 | 10 | 30 |  |  |
| CCOP(=O)(C[n+]1ccc(-c2ncccn2)cn1)OCC.O=C([O-])C(F)(F)F [Compound A230, 1-(diethoxyphosphorylmethyl)-4-pyrimidin-2-yl-pyridazin-1-ium 2,2,2-trifluoroacetate] |  |  |  | 50 | 60 | 70 | 60 | 10 |  | 50 | 20 | 0 |
| CCOP(=O)(O)CCC[n+]1ccc(-c2ncccn2)cn1 [Compound A232] |  |  |  | 100 | 90 | 90 | 100 | 50 |  | 80 | 0 | 20 |
